What was measured:
[1] = Fractional α‐helicity by circular dichroism (CD) spectroscopy; assay type: physicochemical; conditions: for fH (exp), measured fractional helicity via CD spectroscopy: 60 μM peptide, 10 mM sodium phosphate buffer pH 7.4, 4 °C, CDSSTR algorithm on DichroWeb
[2] = molecular target: Spike RBD RBD (Severe acute respiratory syndrome coronavirus 2), P0DTC2; assay: MST; conditions: modification not given

Row | Molecule | fH (exp), measured fractional helicity via CD spectroscopy [1] | α‐helicity from CD spectra (in words) ([1]; 60 μM, 10 mM sodium phosphate buffer, pH 7.4, 4 °C) | Kd [2]
1 | Ac‐βHAsp‐P‐P‐QAKTFLDKFNHEAEDLFYQ‐NH2 [P‐1‐2] | 4% | – | –
2 | Ac‐βHAsp‐[ProM‐5]‐QAKTFLDKFNHEAEDLFYQ‐NH2 [P‐1‐1, βHAsp‐ProM‐5 N‐capped peptide of ACE2 α1 Gln24 to Gln42] | 4% | – | –
3 | Ac-QAKTFLDKFNHEAEDLFYQ-NH2 [P‐1‐3, N‐acetylated parent peptide, α1 from Gln24 to Gln42] | ≤1% | – | –
4 | Ac‐ E QAKTFLDKFNHEAEDLFYQ K ‐NH2 [P‐2‐3] | 5% | – | –
5 | Ac‐ E QAK AAA DK AA HEAE AAA YQ K ‐NH2 [P‐3‐3] | 42% | pronounced α‐helicity | –
6 | EQAKTFLDKFNHEAEDLFYQK [ACE2 alpha1 peptide P-2-1] | – | – | 1210 nM
7 | PPEQAKTFLDKFNHEAEDLFYQK [ACE2 alpha1 peptide P-2-2] | – | – | 62 nM
